Assay results from article PMC8073686, “Characterization of Subtype Selective Cannabinoid CB2 Receptor Agonists as Potential Anti-Inflammatory Agents” (Pharmaceuticals, 2021).

Tested on: IL-2 mRNA in Jurkat cells
Experiment: PHA/PMA-induced IL-2 mRNA in Jurkat cells (RT-PCR)
Type: cell-based, human
Procedure: Activation of CB2 is known to have anti-inflammatory effects. There are some studies reporting that CB2 agonists decrease cytokine production in immune cells. We also reported that the cannabinoid receptor agonist CP55,940 and ABK5 inhibit cytokine production in the human T cell lines Jurkat and MOLT-4 [24]. Since ABK5-1 and 5-2 were confirmed to be CB2-subtype selective agonists, we were interested to determine whether these compounds also have anti-inflammatory effects. Note, although ABK5-6 had marginally better binding affinity to CB2, it bound to CB1 […] (i.e., micromolar range). Therefore ABK5-6 was not selected for further evaluations. We first tested the change of IL-2 and TNF-α mRNA levels in Jurkat cells. […] To test if these mRNA changes are reflected in the protein levels of cytokines, the IL-2 and TNF-α concentration in the cell culture medium were measured by ELISA. […] Unlike ABK5-1, at 3 h of treatment, the lowest concentration of ABK5-2 used caused the IL-2 mRNA decrease. […] On the other hand, TNF-α mRNA decreased by 45% at 10 μM ABK5-2 after 3 h of treatment (Figure 4E, black columns). […] These mRNA level changes were similar to that of ABK5-1, except ABK5-2 caused a stronger inhibitory effect on expression of TNF-α mRNA. […] Consistent with the mRNA levels, the inhibitory effect of ABK5-2 on TNF-α production was stronger than that of ABK5-1.
Figure 4 Effect of ABK5-1 and ABK5-2 on phytohemagglutinin (PHA)/phorbol 12-myristate 13-acetate (PMA)-induced cytokine production in T cells. Jurkat cells were pretreated with DMSO (<0.1%; indicated as 0 μM) or various concentrations of ABK5-1 (A–D) or ABK5-2 (E–H) and stimulated with PHA and PMA. IL-2 and TNF-α mRNA levels were determined by real-time PCR (RT-PCR) after ABK5-1 treatment and (A) 3 h and (B) 24 h of PHA/PMA (phytohemagglutinin/phorbol 12-myristate 13-acetate) stimulation. Protein levels of (C) IL-2 and (D) TNF-α were also examined after 24 h of stimulation. IL-2 and TNF-α mRNA were also examined after ABK5-2 treatment and (E) 3 h and (F) 24 h of stimulation, and protein levels of (G) IL-2 and (H) TNF-α were measured after 24 h stimulation. Results are indicated as the mean ± S.D. of three independent assays performed in triplicate for each concentration. One-way ANOVA and Dunnett’s post-hoc test were used and * p < 0.05, ** p < 0.01, *** p < 0.005, **** p < 0.0001 (versus reference).
For cytokine analysis, 0.75 × 10^6 Jurkat cells per well were seeded in 12-well cell culture plates and treated with compounds at a concentration between 0.1 to 10 μM and incubated for 30 min at 37 °C. Then cells were stimulated for cytokine production with PHA (1 μg/mL) and PMA (12.5 ng/mL), for 3 and 24 h. After stimulation, cells were harvested for RNA analysis and the culture supernatant was used for measurement of IL-2 and TNF-α concentrations by human IL-2 and TNF-α ELISA kits (Thermo Fisher Scientific; Waltham, MA, USA) according to the manufacturer instructions.
Jurkat cells were lysed and total RNA was extracted using TRIzol Reagent (Life Technologies, Carlsbad, CA, USA) followed by reverse transcription by a High-Capacity cDNA Reverse Transcription kit (Life Technologies, Carlsbad, CA, USA) according to the manufacturer’s instructions. Quantitative real-time PCR was performed using an Applied Biosystems 7500 Fast Real-Time PCR system in a 10 μL reaction volume containing 2 μL diluted cDNA and 0.5 μM each of forward and reverse primers, and PowerUp SYBR Green Master Mix (Life Technologies, Carlsbad, CA, USA). Primers used in the reaction were as follows: human 36B4 forward, 5′-[…]-3′, and human 36B4 reverse, 5′-[…]-3′, and human IL-2 forward, 5′-[…]-3′, and human IL-2 reverse, 5′-[…]-3′, and human TNF-α forward, 5′-[…]′, human TNF-α reverse, 5′-[…]-3′. The PCR cycles are as follows: 50 °C for 2 min, 95 °C for 2 min, 40 cycles of 95 °C for 3 sec and 60 °C for 30 s. […]

[1] = 0.1 μM, 3 h PHA/PMA stimulation

SMILES	decrease of IL-2 mRNA [1]	decrease of IL-2 mRNA (1 μM, 3 h PHA/PMA stimulation)	decrease of IL-2 mRNA (10 μM, 3 h PHA/PMA stimulation) [%]	decrease of IL-2 mRNA (10 μM, 24 h)	decrease of IL-2 mRNA (1 μM, 24 h)
CCOC(=O)c1ccccc1NC(=O)CN(c1c(C)cccc1C)S(=O)(=O)c1ccccc1 [ABK5-2]	about 20%	~15%	~46	about 65%	
CCOC(=O)c1ccccc1NC(=O)CN(c1ccc(C)cc1C)S(=O)(=O)c1ccccc1 [ABK5-1]	did not show a significant decrease	about 17%	~46	~67%	about 14%
